Laboratory results taken from the NIST ThermoML archive (doi:10.1021/je9001575).

Assay: molar heat capacity at constant volume
Conditions: Liquid, Vacuum adiabatic calorimetry

CC(C)C [2-methylpropane]
Conditions | molar heat capacity at constant volume [J/K/mol]
119.82 K, 6500 kPa | 71.22
122.33 K, 10732 kPa | 71.61
124.97 K, 15325 kPa | 72.14
127.43 K, 20667 kPa | 72.63
130.02 K, 25536 kPa | 73.32
132.43 K, 28973 kPa | 73.82
141.37 K, 4922 kPa | 73.32
143.72 K, 9088 kPa | 73.74
146.26 K, 13401 kPa | 74.25
148.59 K, 17196 kPa | 74.72
151.09 K, 21305 kPa | 75.18
153.38 K, 24872 kPa | 75.69
155.84 K, 28673 kPa | 76.28
162.3 K, 4549 kPa | 75.71
164.6 K, 8126 kPa | 76.26
167.03 K, 11587 kPa | 76.59
169.29 K, 14798 kPa | 77.08
171.69 K, 18296 kPa | 77.43
173.93 K, 21461 kPa | 78.06
176.29 K, 24825 kPa | 78.43
178.5 K, 27869 kPa | 78.99
180.83 K, 31062 kPa | 79.8
183.24 K, 4049 kPa | 78.07
185.45 K, 6869 kPa | 78.63
187.83 K, 9994 kPa | 79.02
190.01 K, 12743 kPa | 79.62
192.38 K, 15769 kPa | 79.81
194.51 K, 18415 kPa | 80.61
196.86 K, 21369 kPa | 81.16
198.97 K, 23939 kPa | 81.69
201.31 K, 26822 kPa | 81.98
203.38 K, 29282 kPa | 82.49
203.62 K, 3700 kPa | 80.96
205.69 K, 32085 kPa | 83.13
205.82 K, 6192 kPa | 81.19
208.09 K, 8785 kPa | 82.04
210.26 K, 11205 kPa | 82.36
212.53 K, 13758 kPa | 83
214.66 K, 16095 kPa | 83.42
216.92 K, 18597 kPa | 83.89
219.02 K, 20866 kPa | 84.44
221.26 K, 23313 kPa | 85
223.33 K, 25507 kPa | 85.63
224.21 K, 3209 kPa | 84.09
225.57 K, 27916 kPa | 85.85
226.5 K, 5490 kPa | 84.53
227.6 K, 30036 kPa | 86.44
228.59 K, 7563 kPa | 85.18
229.83 K, 32388 kPa | 86.73
230.86 K, 9783 kPa | 85.57
232.95 K, 11833 kPa | 86.15
235.18 K, 13991 kPa | 86.65
237.26 K, 16001 kPa | 87.31
239.46 K, 18103 kPa | 87.79
241.54 K, 20084 kPa | 88.35
243.72 K, 22131 kPa | 88.62
244.91 K, 2940 kPa | 87.7
245.77 K, 24074 kPa | 89.4
246.88 K, 4626 kPa | 88.13
247.92 K, 26062 kPa | 89.81
249.24 K, 6667 kPa | 88.84
249.98 K, 27977 kPa | 90.18
251.17 K, 8311 kPa | 89.23
252.11 K, 29918 kPa | 91.01
253.54 K, 10334 kPa | 89.74
254.15 K, 31797 kPa | 91.18
255.44 K, 11931 kPa | 90.33
257.8 K, 13926 kPa | 90.58
259.68 K, 15488 kPa | 91.3
262.03 K, 17452 kPa | 91.98
263.88 K, 18974 kPa | 92.4
264.62 K, 2580 kPa | 91.58
266.23 K, 20919 kPa | 93.11
266.61 K, 4054 kPa | 92.14
268.06 K, 22404 kPa | 93.8
268.91 K, 5781 kPa | 92.42
270.4 K, 24318 kPa | 94.15
270.88 K, 7235 kPa | 92.99
272.22 K, 25772 kPa | 94.9
273.17 K, 8940 kPa | 93.07
274.56 K, 27659 kPa | 95.07
275.12 K, 10363 kPa | 94.06
276.36 K, 29087 kPa | 95.35
277.4 K, 12047 kPa | 94.2
278.68 K, 30942 kPa | 95.99
279.34 K, 13450 kPa | 95.2
280.46 K, 32342 kPa | 96.46
281.62 K, 15113 kPa | 95.82
283.54 K, 16491 kPa | 96.18
283.66 K, 2372 kPa | 95.67
285.76 K, 3730 kPa | 96.28
285.81 K, 18136 kPa | 97.4
287.72 K, 19487 kPa | 97.22
287.93 K, 5135 kPa | 96.68
289.99 K, 21118 kPa | 98.16
290.04 K, 6483 kPa | 97.37
291.87 K, 22438 kPa | 98.44
292.18 K, 7863 kPa | 98.07
294.14 K, 24048 kPa | 99.1
294.3 K, 9205 kPa | 98
296.01 K, 25350 kPa | 99.94
296.42 K, 10563 kPa | 98.75
298.28 K, 26943 kPa | 99.99
298.53 K, 11894 kPa | 98.97
300.14 K, 28222 kPa | 100.48
300.64 K, 13229 kPa | 100.03
302.39 K, 29793 kPa | 100.74
302.75 K, 14551 kPa | 100.42
303.81 K, 2271 kPa | 99.83
304.25 K, 31058 kPa | 101.52
304.85 K, 15868 kPa | 101.01
306.07 K, 3504 kPa | 100.71
306.5 K, 32612 kPa | 102.04
306.98 K, 17187 kPa | 101.25
308.12 K, 4631 kPa | 100.8
309.04 K, 18478 kPa | 102.38
310.38 K, 5860 kPa | 101.98
311.17 K, 19783 kPa | 102.14
312.42 K, 6973 kPa | 101.82
312.62 K, 2143 kPa | 102.01
313.23 K, 21063 kPa | 102.98
314.68 K, 8197 kPa | 102.64
314.81 K, 3247 kPa | 102.19
315.35 K, 22355 kPa | 103.37
316.7 K, 9293 kPa | 102.97
316.95 K, 4329 kPa | 103.28
317.39 K, 23611 kPa | 103.51
318.98 K, 10517 kPa | 103.88
319.15 K, 5436 kPa | 103.12
319.53 K, 24899 kPa | 104.29
320.98 K, 11596 kPa | 104.6
321.27 K, 6508 kPa | 104.19
321.55 K, 26133 kPa | 104.78
322.43 K, 2027 kPa | 103.88
323.27 K, 12819 kPa | 104.79
323.48 K, 7612 kPa | 104.96
323.69 K, 27412 kPa | 105.09
324.79 K, 3113 kPa | 105.07
325.25 K, 13880 kPa | 105.73
325.59 K, 8668 kPa | 104.99
325.7 K, 28633 kPa | 106.08
326.81 K, 4037 kPa | 105.22
327.54 K, 15099 kPa | 105.76
327.82 K, 9782 kPa | 105.71
327.84 K, 29902 kPa | 106.3
329.14 K, 5110 kPa | 105.78
329.51 K, 16147 kPa | 106.45
329.84 K, 31107 kPa | 106.78
329.89 K, 10815 kPa | 106.1
331.17 K, 6040 kPa | 106.74
331.81 K, 17362 kPa | 106.57
331.98 K, 32367 kPa | 107.91
332.14 K, 11928 kPa | 106.39
333.49 K, 7102 kPa | 106.91
333.76 K, 18392 kPa | 107.16
333.97 K, 33555 kPa | 107.88
334.19 K, 12947 kPa | 107.66
335.53 K, 8034 kPa | 107.69
336.06 K, 19603 kPa | 107.61
336.45 K, 14061 kPa | 107.61
337.84 K, 9085 kPa | 108.12
338 K, 20617 kPa | 108.51
338.49 K, 15066 kPa | 108.51
339.89 K, 10016 kPa | 108.49
340.31 K, 21824 kPa | 108.42
340.75 K, 16177 kPa | 108.82
342.19 K, 11067 kPa | 108.69
342.23 K, 22826 kPa | 110.23
342.77 K, 17169 kPa | 109.53
344.24 K, 11989 kPa | 109.21
344.55 K, 24029 kPa | 109.59
